From ChEMBL document CHEMBL4118135, “Optimized allosteric inhibition of engineered protein tyrosine phosphatases with an expanded palette of biarsenical small molecules” (Bioorg Med Chem, 2018)
Residue numbers refer to the chain shown, from its start. Active and inactive are the calls of the source. No cut-off for these calls is given here.

Experiments:
[1] = target: T1, Tyrosine-protein phosphatase non-receptor type 11 (Homo sapiens) (UniProt Q06124); assay: Inhibition of allosterically sensitized mutant form of His6-tagged human SHP2 catalytic domain at 500 nM at 500 nM using pNPP as substrate incubated for 90 mins by quenched phosphatase activity assay
T1 sequence (whole entry): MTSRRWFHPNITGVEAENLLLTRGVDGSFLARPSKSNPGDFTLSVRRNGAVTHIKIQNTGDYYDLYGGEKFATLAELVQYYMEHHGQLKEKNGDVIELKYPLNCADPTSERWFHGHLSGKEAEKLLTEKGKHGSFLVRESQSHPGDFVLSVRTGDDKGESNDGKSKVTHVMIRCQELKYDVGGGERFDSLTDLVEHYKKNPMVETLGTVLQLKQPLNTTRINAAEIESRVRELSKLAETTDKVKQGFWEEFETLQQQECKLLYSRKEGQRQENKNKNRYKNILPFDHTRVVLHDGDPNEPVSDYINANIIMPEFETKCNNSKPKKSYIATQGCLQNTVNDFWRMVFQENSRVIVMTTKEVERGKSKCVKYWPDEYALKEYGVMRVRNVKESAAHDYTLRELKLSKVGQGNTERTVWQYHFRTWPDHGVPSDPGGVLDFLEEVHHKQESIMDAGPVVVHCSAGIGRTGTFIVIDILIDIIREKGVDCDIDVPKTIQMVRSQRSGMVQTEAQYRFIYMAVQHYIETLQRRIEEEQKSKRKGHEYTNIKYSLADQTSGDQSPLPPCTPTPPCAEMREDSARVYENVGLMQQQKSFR

[2] = target: T1, Tyrosine-protein phosphatase non-receptor type 11 (Homo sapiens); assay: Inhibition of allosterically sensitized mutant form of His6-tagged human SHP2 containing SHP1 and […] SH2 domain at 500 nM at 500 nM using pNPP as substrate incubated for 90 mins by quenched phosphatase activity assay
[3] = target: Tyrosine-protein phosphatase non-receptor type 13 (Homo sapiens) (UniProt Q12923); assay: Inhibition of allosterically sensitized mutant form of His6-tagged human FAP1 catalytic domain at 500 nM using pNPP as substrate incubated for 90 mins by quenched phosphatase activity assay
Chain of Tyrosine-protein phosphatase non-receptor type 13 (Homo sapiens) (Q12923 whole entry, the tested form may be a part): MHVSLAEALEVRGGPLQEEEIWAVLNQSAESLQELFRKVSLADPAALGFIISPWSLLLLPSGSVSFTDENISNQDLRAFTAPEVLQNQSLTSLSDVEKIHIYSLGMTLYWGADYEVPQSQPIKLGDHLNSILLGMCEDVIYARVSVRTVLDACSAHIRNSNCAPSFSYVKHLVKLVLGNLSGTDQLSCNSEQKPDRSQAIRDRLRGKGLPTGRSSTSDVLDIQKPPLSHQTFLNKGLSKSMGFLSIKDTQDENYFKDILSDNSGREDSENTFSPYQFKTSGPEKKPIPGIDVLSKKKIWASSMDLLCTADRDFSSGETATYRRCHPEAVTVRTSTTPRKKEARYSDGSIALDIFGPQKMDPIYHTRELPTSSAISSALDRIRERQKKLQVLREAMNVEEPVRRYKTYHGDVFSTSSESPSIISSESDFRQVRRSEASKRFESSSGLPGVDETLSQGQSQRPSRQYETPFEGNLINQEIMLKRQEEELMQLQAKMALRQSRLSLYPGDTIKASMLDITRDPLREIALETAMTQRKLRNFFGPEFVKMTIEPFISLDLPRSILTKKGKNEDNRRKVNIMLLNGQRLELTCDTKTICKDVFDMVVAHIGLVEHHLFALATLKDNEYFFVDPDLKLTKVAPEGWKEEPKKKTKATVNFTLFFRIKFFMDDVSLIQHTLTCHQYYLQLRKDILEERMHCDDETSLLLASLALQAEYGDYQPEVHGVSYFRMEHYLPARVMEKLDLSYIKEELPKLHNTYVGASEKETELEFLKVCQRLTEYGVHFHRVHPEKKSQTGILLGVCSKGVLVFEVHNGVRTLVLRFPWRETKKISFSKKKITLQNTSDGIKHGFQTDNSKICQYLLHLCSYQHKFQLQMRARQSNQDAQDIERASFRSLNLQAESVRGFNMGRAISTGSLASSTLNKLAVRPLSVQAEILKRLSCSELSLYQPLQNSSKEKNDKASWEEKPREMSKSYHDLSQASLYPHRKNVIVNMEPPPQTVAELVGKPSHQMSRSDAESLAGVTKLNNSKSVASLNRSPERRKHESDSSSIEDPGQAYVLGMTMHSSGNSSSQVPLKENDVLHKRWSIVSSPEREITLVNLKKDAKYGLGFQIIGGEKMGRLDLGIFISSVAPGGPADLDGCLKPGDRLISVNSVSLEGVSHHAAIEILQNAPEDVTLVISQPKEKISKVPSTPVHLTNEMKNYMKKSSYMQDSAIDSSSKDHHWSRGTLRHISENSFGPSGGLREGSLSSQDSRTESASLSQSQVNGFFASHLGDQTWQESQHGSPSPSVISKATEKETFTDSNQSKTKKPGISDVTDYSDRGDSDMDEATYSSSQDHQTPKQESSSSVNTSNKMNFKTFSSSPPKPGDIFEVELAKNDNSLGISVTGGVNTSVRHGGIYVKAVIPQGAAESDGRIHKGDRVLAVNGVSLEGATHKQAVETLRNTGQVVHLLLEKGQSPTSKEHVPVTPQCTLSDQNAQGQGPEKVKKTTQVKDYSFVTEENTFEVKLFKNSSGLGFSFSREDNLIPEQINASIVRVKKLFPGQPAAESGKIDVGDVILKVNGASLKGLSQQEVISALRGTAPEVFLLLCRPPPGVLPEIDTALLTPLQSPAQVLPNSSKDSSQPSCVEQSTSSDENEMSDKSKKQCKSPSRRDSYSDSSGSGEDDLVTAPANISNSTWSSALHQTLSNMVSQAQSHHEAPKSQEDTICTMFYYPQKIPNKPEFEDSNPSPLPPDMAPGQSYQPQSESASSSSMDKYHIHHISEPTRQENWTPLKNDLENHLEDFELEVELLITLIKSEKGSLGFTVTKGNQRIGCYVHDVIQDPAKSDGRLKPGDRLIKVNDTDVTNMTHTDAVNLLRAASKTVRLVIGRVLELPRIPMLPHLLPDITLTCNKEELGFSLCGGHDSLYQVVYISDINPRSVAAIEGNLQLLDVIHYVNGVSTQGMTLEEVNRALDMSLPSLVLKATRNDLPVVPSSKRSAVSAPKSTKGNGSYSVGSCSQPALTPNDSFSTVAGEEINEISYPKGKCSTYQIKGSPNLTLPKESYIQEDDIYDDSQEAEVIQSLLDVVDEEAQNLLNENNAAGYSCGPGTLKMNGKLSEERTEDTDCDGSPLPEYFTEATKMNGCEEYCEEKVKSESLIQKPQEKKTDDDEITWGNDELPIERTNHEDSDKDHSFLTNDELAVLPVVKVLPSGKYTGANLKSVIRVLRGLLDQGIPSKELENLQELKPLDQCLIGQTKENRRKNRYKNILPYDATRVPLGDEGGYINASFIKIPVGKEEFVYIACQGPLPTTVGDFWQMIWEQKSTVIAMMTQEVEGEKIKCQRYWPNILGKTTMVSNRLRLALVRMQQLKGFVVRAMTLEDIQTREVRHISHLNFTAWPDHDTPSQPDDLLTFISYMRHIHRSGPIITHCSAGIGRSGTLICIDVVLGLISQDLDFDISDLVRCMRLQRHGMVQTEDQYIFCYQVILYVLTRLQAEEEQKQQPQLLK

[4] = organism: Homo sapiens; assay: Inhibition of His6-tagged human wild-type PTP catalytic domain at 500 nM using pNPP as substrate incubated for 90 mins by quenched phosphatase activity assay
[5] = tested on: T2, Tyrosine-protein phosphatase non-receptor type 1 (Homo sapiens), P18031 [P87C,A122C]; assay: Inhibition of allosterically sensitized His6-tagged human PTP1B catalytic domain P87C/A122C mutant at 2000 nM using pNPP as substrate incubated for 10 to 40 mins by quenched phosphatase activity assay; conditions: TDE = time-dependent effect
T2 sequence (whole entry): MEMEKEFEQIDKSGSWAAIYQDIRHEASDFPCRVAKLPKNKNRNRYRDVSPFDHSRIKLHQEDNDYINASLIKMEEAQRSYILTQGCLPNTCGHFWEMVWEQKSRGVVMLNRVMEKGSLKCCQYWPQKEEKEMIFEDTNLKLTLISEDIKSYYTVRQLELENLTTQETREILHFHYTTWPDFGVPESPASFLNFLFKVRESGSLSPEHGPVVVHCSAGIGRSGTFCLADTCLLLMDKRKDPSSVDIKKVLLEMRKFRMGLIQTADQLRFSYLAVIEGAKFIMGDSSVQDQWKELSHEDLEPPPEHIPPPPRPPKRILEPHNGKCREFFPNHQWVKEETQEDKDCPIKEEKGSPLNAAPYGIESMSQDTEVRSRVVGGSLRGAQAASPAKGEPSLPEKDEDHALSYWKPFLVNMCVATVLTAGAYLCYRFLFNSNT

[6] = tested on: T2, Tyrosine-protein phosphatase non-receptor type 1 (Homo sapiens), P18031 [P87C,A122C]; assay: Inhibition of allosterically sensitized His6-tagged human PTP1B catalytic domain P87C/A122C mutant at 250 nM using pNPP as substrate incubated for 90 mins by quenched phosphatase activity assay
[7] = tested on: T3, Tyrosine-protein phosphatase non-receptor type 7 (Homo sapiens), P35236 [P171C,V205C]; assay: Inhibition of allosterically sensitized mutant form of His6-tagged human HePTP catalytic domain at 500 nM using pNPP as substrate incubated for 90 mins by quenched phosphatase activity assay
T3 sequence (whole entry): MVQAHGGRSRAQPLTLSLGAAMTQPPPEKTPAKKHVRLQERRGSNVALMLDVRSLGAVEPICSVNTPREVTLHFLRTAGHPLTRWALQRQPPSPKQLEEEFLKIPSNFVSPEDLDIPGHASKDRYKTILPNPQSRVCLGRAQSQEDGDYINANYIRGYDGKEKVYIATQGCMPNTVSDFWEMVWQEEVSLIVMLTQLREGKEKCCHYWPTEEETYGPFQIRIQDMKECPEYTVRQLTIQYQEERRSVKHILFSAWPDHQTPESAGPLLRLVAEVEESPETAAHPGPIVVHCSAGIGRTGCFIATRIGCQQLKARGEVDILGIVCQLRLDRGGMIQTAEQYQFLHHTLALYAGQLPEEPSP

[8] = target: Tyrosine-protein phosphatase non-receptor type 6 (Homo sapiens) (UniProt P29350); assay: Inhibition of allosterically sensitized mutant form of His6-tagged human SHP1 catalytic domain at 500 nM using pNPP as substrate incubated for 90 mins by quenched phosphatase activity assay
Chain of Tyrosine-protein phosphatase non-receptor type 6 (Homo sapiens) (P29350 whole entry, the tested form may be a part): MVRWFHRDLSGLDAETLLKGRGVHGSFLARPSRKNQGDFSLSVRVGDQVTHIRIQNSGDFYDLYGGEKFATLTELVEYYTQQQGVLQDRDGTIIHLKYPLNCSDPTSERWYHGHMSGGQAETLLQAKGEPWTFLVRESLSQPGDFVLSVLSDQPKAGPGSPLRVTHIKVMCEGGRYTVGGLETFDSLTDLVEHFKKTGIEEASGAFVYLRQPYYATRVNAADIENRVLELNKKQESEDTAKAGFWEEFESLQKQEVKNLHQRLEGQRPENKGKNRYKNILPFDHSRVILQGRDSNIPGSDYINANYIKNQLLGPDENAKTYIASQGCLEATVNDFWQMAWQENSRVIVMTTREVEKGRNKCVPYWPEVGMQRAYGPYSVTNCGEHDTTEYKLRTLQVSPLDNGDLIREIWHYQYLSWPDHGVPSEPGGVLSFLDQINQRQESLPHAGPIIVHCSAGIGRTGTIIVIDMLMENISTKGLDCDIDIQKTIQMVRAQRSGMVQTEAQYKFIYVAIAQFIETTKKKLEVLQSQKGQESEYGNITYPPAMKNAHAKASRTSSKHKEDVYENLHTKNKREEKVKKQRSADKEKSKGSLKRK

[9] = target: Tyrosine-protein phosphatase non-receptor type 13 (Homo sapiens) (UniProt Q12923); assay: Inhibition of allosterically sensitized mutant form of His6-tagged human FAP1 catalytic domain using pNPP as substrate after 90 mins by quenched phosphatase activity assay
[10] = target: T4, Tyrosine-protein phosphatase non-receptor type 7 (Homo sapiens) (UniProt P35236); assay: Inhibition of His6-tagged human wild-type HePTP catalytic domain at 1 uM using pNPP as substrate incubated for 90 mins by quenched phosphatase activity assay
T4 sequence (whole entry): T3 sequence (whole entry) with C171P, C205V

[11] = tested on: T3, Tyrosine-protein phosphatase non-receptor type 7 (Homo sapiens), P35236 [P171C,V205C]; assay: Inhibition of allosterically sensitized mutant form of His6-tagged human HePTP catalytic domain at 1 uM using pNPP as substrate measured up to 10 mins by quenched phosphatase activity assay
[12] = target: T4, Tyrosine-protein phosphatase non-receptor type 7 (Homo sapiens); assay: Inhibition of His6-tagged wild type human HePTP catalytic domain overexpressed in Escherichia coli BL21(DE3) cells at 25 uM using pNPP as substrate incubated for 90 mins by quenched phosphatase activity assay

Compound | inhibition [1] | inhibition [2] | inhibition [3] | inhibition [4] | inhibition [5] | inhibition [6] | inhibition [7] | inhibition [8] | inhibition [9] | inhibition [10] | inhibition [11] [%] | inhibition [12]
CC1(C)C(/C=C/C=C2/N(CCCCS(=O)(=O)O)c3ccc([As]4SCCS4)cc3C2(C)C)=[N+](CCCCS(=O)(=O)O)c2ccc([As]3SCCS3)cc21 | inactive | inactive | Active | Active | Tde | 70% | inactive | Active |  |  |  | 
O=C(O)c1ccccc1-c1c2ccc(=O)c([As]3SCCS3)c-2oc2c([As]3SCCS3)c(O)ccc12 | Active | Active | Active | Active |  | Active | Active | Active | Dose-dependent effect | inactive | 50 | inactive
